What was measured:
BV-2 microglia cells [1] = experiment: Anti-inflammatory assessment in LPS-stimulated BV-2 cells (NO, ROS, IL-6, TNF-α); format: cell-based, mouse; settings: 10 μM pretreatment 1 h, then LPS 18 h
Method: Mouse microglial (BV-2) cell line was a generous gift from Prof. Bożena Kamińska-Kaczmarek of the Nencki Institute of Experimental Biology, Polish Academy of Sciences, Warsaw, Poland. The cell culture medium: Dulbecco’s modified with high glucose (DMEM, Glutamx ThermoFisher) and supplemented with 10% inactivated fetal bovine serum heat (ThermoFisher), 100 IU/mL penicillin (Merck) and 100 μg/mL streptomycin (Merck). Cell culture conditions: culture flasks (area 175 cm^2, Nunc), temperature of 37 °C, 5% CO2. For the assessment of the effect of tested compounds on the quantities of reactive oxygen species, nitric oxide, and inflammatory markers, the BV-2 cells were positioned in a 96-well culture plate (5 × 10^4 cells per well, Falcon). In the case of cell membrane damage assay, a 96-well culture plate (2 × 10^4 cells per well, Falcon) was used. The cells were cultured in the incubator (37 °C, 5% CO2) for 24 h prior to the assay. The tested compounds were dissolved in DMSO to achieve the concentration of 10^–2 M. Serial dilutions of the compounds were prepared in PBS and added directly to the medium containing adherent cells. The resulting mixtures were examined for any evidence of precipitation or opalescence before the assay. BV-2 cells were incubated with selected molecules (6, 16 at a concentration of 10 μM) during 1 h. Subsequently, lipopolysaccharide (100 ng/mL) was added and the resulting mixture was incubated for 18 h. Next, the culture supernatant was collected to measure the levels of nitric oxide (NO), reactive oxygen species (ROS), IL-6, and TNF-α according to the procedures described in detail below. All experiments were performed in duplicates, in three independent experiments.
The quantities of NO produced by the cells were determined using DAN reagent (2,3-diaminonaphthalene), rendering the method protocol described by Nussler et al.[48] After incubating at room temperature for 15 min, the fluorescence intensity (EX 360; EM 440 nm) was measured using a microplate reader POLARstar Omega from BMG Labtech. The amounts of NO were then calculated as a percentage of the control (which represents the maximal response of LPS). ROS measurement. The fluorescent dye 2,7-dichlorodihydrofluorescein diacetate (DCFH-DA)[49] was utilized to determine the quantity of ROS released by BV-2 cells. After a 30 min incubation period at 37 °C with 10 μM DCFH-DA, the fluorescence intensity (EX 490; EM 520 nm) was examined using a microplate reader POLARstar Omega from BMG Labtech. The amounts of ROS were then expressed as a percentage of the control (which represents the maximal response of LPS). The IL-6 and TNF-α levels detected in the culture supernatants were quantified using LANCE Ultra TR-FRET detection kit (PerkinElmer), rendering the manufacturer’s procedure. The detection of IL-6 and TNF-α was performed independently in a 384-well plate according to the instructions provided. To each well of the plate, 15 μL of sample was added followed by the addition of 5 μL of premixed antibody solution. After incubating IL-6 for 1 h and TNF-α for 3 h in the absence of light, at 22 °C, the plates were transferred to an EnVision plate reader (PerkinElmer). Measurements were conducted at 320 nm wavelength for excitation, at 615 nm for donor emission, and at 660 nm for acceptor emission. The final data were determined as the ratio of the 660 nm signal to the 615 nm signal. The results represent the levels of each cytokine determined as a percentage of control (considered as maximal cell response to LPS). The GraphPad program was used to conduct statistical analysis, with all outcomes presented as mean values with standard deviation (SD). Differences between groups were assessed using one-way ANOVA, followed by post hoc analysis (Dunnett’s multiple comparison tests). Results were considered statistically significant if the p-value was less than 0.05. […]

BV-2 microglia cells [2] = experiment: Evaluation of microglia morphology by fluorescence microscopy (MitoTracker) after LPS; format: cell-based, mouse; settings: 10 μM pretreatment 1 h, LPS 18 h
female Wistar rats [3] = experiment: Forced swim test in rats; format: in vivo, rat; settings: acute, ip 30 min before test
Method: Naïve female Wistar rats (weighing 180–200 g) were used in the study. The animals were housed in groups of three to four in standard Makrolon cages (37 cm × 21 cm × 15 cm) under strictly controlled laboratory conditions (ambient temperature 21–24 °C, relative humidity 45–65%) with a 12/12 h light–dark regime (light on at 6:00 a.m. and off at 6:00 p.m.). Animals had unrestricted access to tap water and food (typical pellets). Prior the experiment the animals were randomly appointed to the group. The behavioral studies were accomplished between 8:00 a.m. and 5:00 p.m. with the researcher blind to the study. The experiments were performed according to protocols approved by the Local Ethical Committee in Krakow (Approval Number 147/2018), Poland. Housing and experimental procedures were conducted under the European Union Directive of September 22, 2010 (2010/63/EU) and Polish legislation regarding animal studies. All efforts were made to minimize animal suffering and the number of animals used in the study.
Vortioxetine (Sigma, Germany) and the tested compounds (16 and 6) were dissolved in 10% cyclodextrin and administered ip 30 min before the test or during 14 consecutive days, with the last injection 60 min before the test. 10% cyclodextrin was administrated to control group.
A modified forced swim test was carried out according to Detke et al.[50],[51] First, the animals were individually placed inside Plexiglas cylinders, which were 40 cm high and 18 cm in diameter, filled with water at a temperature of 23–25 °C for 15 min. Afterward, the rats were transferred to a Plexiglas box and kept under a 60 W bulb for 30 min to dry. The day after, exactly 24 h later, the rats were once again placed in the cylinder, and their duration of immobility, swimming, and climbing was observed and recorded during a 5 min. The swimming behavior involved energetic movements such as horizontal swimming around the cylinder, while climbing activity referred to upward movements of the forepaws along the swim chamber’s side. Immobility was recorded when the rat only made necessary movements to keep its head above the water. For each test, a fresh water was provided. Open field test in rats: The test was conducted as previously reported by our research group.[52] The test was performed in a darkened room employing the Motor Monitor System (Campden Instruments, Ltd., U.K.). The system was equipped with two SmartFrame Open Field stations, each measuring 40 cm × 40 cm × 38 cm and consisting of 16 × 16 beams. These stations were placed inside sound-attenuating chambers and connected to a PC software using […]. The animals, belonging to either the vehicle-injected or drug-injected group, were individually positioned at the center of the station. The Motor Monitor System, which was automated, recorded the animal’s ambulation in both the X and Y axes, as well as the number of rearing and peeping episodes. Additionally, the total distance traveled by each animal during the 5 min test period was also recorded. Statistical analysis: Results are presented as the mean ± SEM values. They were estimated using one-way analysis of variance (ANOVA), followed by Newman–Keuls post hoc or unpaired two-tailed Student t test. Statistical significance was considered when p < 0.05 for differences between groups.

5-HT6 receptor = 5-HT6 receptor (Homo sapiens, UniProt P50406); experiment: Radioligand binding assay for 5-HT6 receptor ([3H]-LSD displacement); set-up: expressed in transfected cells; host or cells: HEK-293 (cryopreserved membranes); settings: competitive replacement of [3H]-LSD; ±S.E.M.; read-out: 5-HT6R Ki
Chain of 5-HT6 receptor (P50406 whole entry): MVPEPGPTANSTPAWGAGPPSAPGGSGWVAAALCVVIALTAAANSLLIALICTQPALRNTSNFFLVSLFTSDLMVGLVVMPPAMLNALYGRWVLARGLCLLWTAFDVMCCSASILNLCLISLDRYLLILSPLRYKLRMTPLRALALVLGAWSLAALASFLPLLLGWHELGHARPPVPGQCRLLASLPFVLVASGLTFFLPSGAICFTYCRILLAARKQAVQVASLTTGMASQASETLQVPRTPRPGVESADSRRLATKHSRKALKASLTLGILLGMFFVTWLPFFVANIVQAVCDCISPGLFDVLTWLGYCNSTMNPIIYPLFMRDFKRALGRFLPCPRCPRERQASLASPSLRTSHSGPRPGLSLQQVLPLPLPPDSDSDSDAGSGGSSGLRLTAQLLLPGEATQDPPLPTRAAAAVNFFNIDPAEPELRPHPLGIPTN
Method: To determine the affinity for 5-HT6, the cryopreserved membranes from HEK-293 cells stably transfected with the human recombinant 5-HT6 receptor were used.[40] Preparation of the tested compounds included preparation of stock solutions in DMSO (1 mM) and subsequent serial dilutions (10^–10–10^–5 M) of tested compounds in the appropriate buffer (50 mM Tris buffer, pH 7.4, 10 mM MgCl2, 0.5 mM ethylenediaminetetraacetic acid). The serial dilutions were acquired directly on a 96-well microplate. The reaction mix included 50 μL of appropriate concentration of tested molecule, 50 μL of [^3H]LSD 2.5/2.0 nM, and 150 μL of diluted membranes. The microplate containing the reaction mix was protected with a sealing tape and incubated for 60 min at 37 °C. Quenching of the reaction mixtire included: rapid filtration through UniFilter 96 GF/B filter microplate and rapid washes using 200 μL 50 mM assay buffer and vacuum manifold and 96-well pipettor. The collected microplates were dried overnight at 37 °C. The UniFilter bottoms were sealed, and then 30 μL of Betaplate Scint liquid scintillator (PerkinElmer) was added to each well. […] The obtained data were fit to a one-site curve-fitting equation using Prism 5 software (GraphPad Software), and the Ki values were determined using the Cheng–Prusoff equation. Radioligand binding was performed in duplicates.

female Wistar rats [4] = test system: female Wistar rats; set-up: method as in PMID 36603509; settings: not tested here; cited from earlier work
[5] = test system: human α1β2γ2-GABA-A receptors; experiment: Electrophysiological studies, automated patch clamp (QPatch16X), HEK293 cells; format: cell-based; settings: agonist mode, compound at 10 μM; current amplitude normalized to 10 μM GABA response; ±S.E.M.
Method: Electrophysiological studies were acquired using the QPatch16X automatic patch clamp platform (Sophion Biosciences) as described before.[42],[43] […] Before the assay, cells were detached from the culture flask by treating them with TrypLE Express solution (Life Technologies) and subsequently suspended in serum-free media. The cells were loaded into a 1.5 mL microtube on the automated electrophysiology instrument, which subsequently performed a spin-down using its built-in centrifuge. Following this, the cells were washed with Ringer’s extracellular solution. The cells were moved to the pipetting wells of a 16-channel planar patch chip plate (QPlate 16X) designed for single-use. A combined suction/voltage protocol was then applied to establish gigaseals. […] During the entire whole-cell recording, the holding potential was maintained at −90 mV. […] The intracellular solution contained 140 mM CsF, 1 mM EGTA, 5 mM CsOH, 10 mM HEPES, 20 mMNaCl (pH 7.2, 320 mOsm). […] The acquired data were examined with QPatch assay software (v5.0, Sophion Biosciences)[44] and are represented as the mean of three separated measurements performed on distinct cells. The efficacy of the tested molecules was determined by calculating the baseline-corrected ratio of the maximum current amplitudes elicited by the tested compounds and the reference agonist (T1-ATG/AG1-ATG or T2-ATG/AG1-ATG). The raw current recordings were standardized and presented as a percentage of the current amplitude evoked by the reference agonist, using the QPatch assay software (v5.0, Sophion Biosciences).

[6] = Parallel artificial membrane permeability assay (PAMPA); format: in vitro ADME; settings: tested at 10^–5 M, PAMPA Plate System Gentest
Method: To estimate the passive transport through cell membranes, we used specialized PAMPA Plate System Gentest acquired from Corning (Tewksbury, MA, USA). The assay was performed as described in the manufacturer’s protocol. The quantitative measurements of tested molecules in apical and basolateral wells were conducted using LC/MS (Waters ACQUITY TQD system with the TQ detector, Milford, USA) and a specific internal standard. The Pe permeability coefficient was calculated rendering the formulas described previously[47],[47] and compared to the reference compound sulpiride.

Cc1c(OCc2ccccc2)cccc1N1CCN(CCO)CC1 [Compound 6, 2-(4-(3-(Benzyloxy)-2-methylphenyl)piperazin-1-yl)ethan-1-ol]
LPS-induced IL-6 production (BV-2 microglia cells [1]): did not change
LPS-induced NO production (BV-2 microglia cells [1]): did not change
LPS-induced ROS production (BV-2 microglia cells [1]): did not change
LPS-induced TNF-α production (BV-2 microglia cells [1]): did not change
mitochondrial membrane potential / morphology of microglia exposed to LPS (BV-2 microglia cells [2]): mitochondrial membrane potential was changed
immobility, climbing and swimming behaviors (female Wistar rats [3]): did not influence any of the above behaviors
Ki (5-HT6 receptor): 8 ± 0.8 nM

NCCCC(=O)O [GABA]
antidepressant effects (female Wistar rats [4]): does not produce antidepressant effects
[%] of 10 μM GABA activity [5]: 100%

CCN1CCCC1CNC(=O)c1cc(S(N)(=O)=O)ccc1OC (stereo not shown) [sulpiride, reference compound]
Papp [6]: 0.016 ×10⁻⁶ cm/s

From article PMC10119930, “Dual Molecules Targeting 5-HT6 and GABA-A Receptors as a New Approach to Combat Depression Associated with Neuroinflammation” (ACS Chemical Neuroscience, 2023)
